Test results taken from ChEMBL document CHEMBL5291721, “A preclinical secondary pharmacology resource illuminates target-adverse drug reaction associations of marketed drugs” (Nat Commun, 2023).

What was measured:
[1] = target: D(1A) dopamine receptor (Homo sapiens, UniProt P21728)
[2] = target: 5-hydroxytryptamine receptor 2A (Homo sapiens, UniProt P28223)
[3] = target: T1, Muscarinic acetylcholine receptor M4 (Homo sapiens, UniProt P08173)
T1 sequence (P08173 whole entry): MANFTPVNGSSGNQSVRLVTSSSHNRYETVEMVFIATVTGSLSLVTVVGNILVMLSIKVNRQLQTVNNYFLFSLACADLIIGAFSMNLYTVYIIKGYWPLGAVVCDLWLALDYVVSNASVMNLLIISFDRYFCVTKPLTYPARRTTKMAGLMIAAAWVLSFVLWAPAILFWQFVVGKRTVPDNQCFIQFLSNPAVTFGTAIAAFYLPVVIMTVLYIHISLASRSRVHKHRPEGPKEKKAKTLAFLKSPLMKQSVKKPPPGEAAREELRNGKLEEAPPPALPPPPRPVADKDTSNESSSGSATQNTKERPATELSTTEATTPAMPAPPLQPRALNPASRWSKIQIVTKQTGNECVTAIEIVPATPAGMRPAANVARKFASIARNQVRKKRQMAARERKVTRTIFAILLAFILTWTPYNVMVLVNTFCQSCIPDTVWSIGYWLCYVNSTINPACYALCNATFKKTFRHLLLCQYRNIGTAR

[4] = target: T2, Retinoic acid receptor gamma (Homo sapiens, UniProt P13631); assay type: functional, cell-based
T2 sequence (P13631 whole entry): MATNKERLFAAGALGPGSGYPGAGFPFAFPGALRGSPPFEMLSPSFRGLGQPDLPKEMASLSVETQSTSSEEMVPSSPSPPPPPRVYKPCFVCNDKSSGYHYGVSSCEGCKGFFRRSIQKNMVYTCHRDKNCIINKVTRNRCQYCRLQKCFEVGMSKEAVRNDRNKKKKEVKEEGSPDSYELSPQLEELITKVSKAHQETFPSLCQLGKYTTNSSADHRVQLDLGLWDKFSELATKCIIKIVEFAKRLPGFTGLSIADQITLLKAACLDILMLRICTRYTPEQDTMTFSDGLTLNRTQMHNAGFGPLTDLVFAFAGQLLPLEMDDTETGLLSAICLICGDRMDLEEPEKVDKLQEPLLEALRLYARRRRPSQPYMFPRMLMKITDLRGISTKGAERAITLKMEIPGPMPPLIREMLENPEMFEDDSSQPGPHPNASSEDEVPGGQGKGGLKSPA

[5] = target: T3, Retinoic acid receptor beta (Homo sapiens, UniProt P10826); assay type: functional, cell-based
T3 sequence (P10826 whole entry): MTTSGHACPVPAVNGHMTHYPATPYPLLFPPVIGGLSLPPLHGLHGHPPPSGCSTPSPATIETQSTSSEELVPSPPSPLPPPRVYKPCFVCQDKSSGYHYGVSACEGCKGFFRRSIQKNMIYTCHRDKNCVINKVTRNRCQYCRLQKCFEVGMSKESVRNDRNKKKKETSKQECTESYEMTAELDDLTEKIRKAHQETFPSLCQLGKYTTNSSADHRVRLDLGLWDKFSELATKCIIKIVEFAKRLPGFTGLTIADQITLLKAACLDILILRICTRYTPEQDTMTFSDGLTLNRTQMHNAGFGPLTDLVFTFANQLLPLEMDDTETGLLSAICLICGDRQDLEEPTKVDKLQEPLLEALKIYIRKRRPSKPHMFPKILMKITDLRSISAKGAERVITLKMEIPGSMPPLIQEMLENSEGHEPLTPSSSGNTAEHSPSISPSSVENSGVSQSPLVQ

[6] = target: T4, Oxysterols receptor LXR-beta (Homo sapiens, UniProt P55055); assay type: functional
T4 sequence (P55055 whole entry): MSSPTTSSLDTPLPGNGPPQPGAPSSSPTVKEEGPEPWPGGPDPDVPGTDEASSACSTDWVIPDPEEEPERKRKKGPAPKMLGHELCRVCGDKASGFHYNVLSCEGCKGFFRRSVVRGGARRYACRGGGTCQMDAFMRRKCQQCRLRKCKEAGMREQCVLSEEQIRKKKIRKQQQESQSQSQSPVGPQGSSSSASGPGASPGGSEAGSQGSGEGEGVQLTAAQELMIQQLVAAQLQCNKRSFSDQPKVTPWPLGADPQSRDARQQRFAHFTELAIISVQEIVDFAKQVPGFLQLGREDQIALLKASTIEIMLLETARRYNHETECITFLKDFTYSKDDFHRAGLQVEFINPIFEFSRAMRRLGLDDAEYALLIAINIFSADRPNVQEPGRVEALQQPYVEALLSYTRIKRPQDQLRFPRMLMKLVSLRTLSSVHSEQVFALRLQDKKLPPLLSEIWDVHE

[7] = target: T5, Bile acid receptor (Homo sapiens, UniProt Q96RI1); assay type: functional
T5 sequence (Q96RI1 whole entry): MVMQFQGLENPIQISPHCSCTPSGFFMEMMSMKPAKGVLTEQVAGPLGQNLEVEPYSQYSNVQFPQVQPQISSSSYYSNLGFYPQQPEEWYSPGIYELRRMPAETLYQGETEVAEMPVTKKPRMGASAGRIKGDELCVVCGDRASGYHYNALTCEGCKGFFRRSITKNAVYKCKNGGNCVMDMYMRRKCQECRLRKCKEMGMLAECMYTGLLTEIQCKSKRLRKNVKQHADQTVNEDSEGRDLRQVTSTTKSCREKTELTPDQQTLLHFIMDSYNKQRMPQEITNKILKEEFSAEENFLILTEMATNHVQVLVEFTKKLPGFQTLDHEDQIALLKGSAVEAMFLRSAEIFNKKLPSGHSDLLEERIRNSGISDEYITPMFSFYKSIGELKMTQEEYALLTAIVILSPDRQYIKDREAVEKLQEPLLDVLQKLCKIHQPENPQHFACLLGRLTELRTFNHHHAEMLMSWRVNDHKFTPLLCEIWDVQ

[8] = target: T5, Bile acid receptor; assay type: functional; remark: listed apart in the source
Further: assay procedure not described here.

Chain of D(1A) dopamine receptor (P21728 whole entry): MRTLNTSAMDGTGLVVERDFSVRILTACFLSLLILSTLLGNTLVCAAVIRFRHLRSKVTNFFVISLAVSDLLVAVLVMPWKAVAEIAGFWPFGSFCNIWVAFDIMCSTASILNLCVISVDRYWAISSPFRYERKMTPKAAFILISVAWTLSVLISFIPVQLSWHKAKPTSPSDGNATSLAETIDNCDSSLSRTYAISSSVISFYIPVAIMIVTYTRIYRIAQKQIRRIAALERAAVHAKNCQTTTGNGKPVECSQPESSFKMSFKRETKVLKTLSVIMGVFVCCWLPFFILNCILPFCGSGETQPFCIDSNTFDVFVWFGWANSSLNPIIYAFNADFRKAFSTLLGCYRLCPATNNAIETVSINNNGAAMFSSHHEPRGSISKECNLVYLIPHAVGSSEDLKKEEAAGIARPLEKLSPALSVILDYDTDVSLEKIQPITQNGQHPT
Chain of 5-hydroxytryptamine receptor 2A (P28223 whole entry): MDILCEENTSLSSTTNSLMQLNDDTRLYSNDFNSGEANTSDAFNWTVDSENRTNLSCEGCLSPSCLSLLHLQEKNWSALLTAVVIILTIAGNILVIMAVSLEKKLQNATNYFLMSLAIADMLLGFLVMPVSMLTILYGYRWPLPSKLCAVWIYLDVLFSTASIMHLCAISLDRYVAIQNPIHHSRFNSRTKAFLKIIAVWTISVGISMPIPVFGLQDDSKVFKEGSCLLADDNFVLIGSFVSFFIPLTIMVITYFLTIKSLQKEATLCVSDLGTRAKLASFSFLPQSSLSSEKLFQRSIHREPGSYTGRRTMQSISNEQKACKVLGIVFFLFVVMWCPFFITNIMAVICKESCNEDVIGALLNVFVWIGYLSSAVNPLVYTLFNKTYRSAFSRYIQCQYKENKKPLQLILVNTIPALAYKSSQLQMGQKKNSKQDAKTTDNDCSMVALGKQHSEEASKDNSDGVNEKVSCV

O=C(Nc1cccc2c(=O)cc(-c3nnn[nH]3)oc12)c1ccc(OCCCCc2ccccc2)cc1
AC50 [1]: 2.88 µM

CC(C)C[C@H](CN)CC(=O)O [PREGABALIN]
AC50 [2]: > 10 µM

CC1(C)O[C@@H]2[C@@H](CO[C@@]3(COS(N)(=O)=O)OC(C)(C)O[C@@H]23)O1 [TOPIRAMATE]
AC50 [2]: > 10 µM

Cc1cnc(NC(=O)C2=C(O)c3ccccc3S(=O)(=O)N2C)s1 [MELOXICAM]
AC50 [3]: > 10 µM

CN(C)c1cc(CNCC(C)(C)C)c(O)c2c1C[C@H]1C[C@H]3[C@H](N(C)C)C(O)=C(C(N)=O)C(=O)[C@@]3(O)C(O)=C1C2=O [OMADACYCLINE]
AC50 [3]: > 30 µM | AC50 [1]: > 30 µM

O=C1CN2Cc3c(ccc(Cl)c3Cl)N=C2N1 [ANAGRELIDE]
AC50 [2]: > 10 µM

CNC(=O)c1cc(Oc2ccc(NC(=O)Nc3ccc(Cl)c(C(F)(F)F)c3)c(F)c2)ccn1 [REGORAFENIB]
AC50 [1]: 4.15 µM | AC50 [4]: > 30 µM | AC50 [5]: > 30 µM | AC50 [6]: > 30 µM | AC50 [7]: > 30 µM | AC50 [8]: > 30 µM

COC(=O)[C@H](c1ccccc1Cl)N1CCc2sccc2C1 [CLOPIDOGREL]
AC50 [3]: > 10 µM

CN1CCN(CCCN2c3ccccc3Sc3ccc(S(=O)(=O)N(C)C)cc32)CC1 [THIOPROPERAZINE]
AC50 [1]: > 30 µM

CCC(=O)O[C@@H](O[P@](=O)(CCCCc1ccccc1)CC(=O)N1C[C@H](C2CCCCC2)C[C@H]1C(=O)O)C(C)C [FOSINOPRIL]
AC50 [1]: 21.6 µM

CCOc1cc(CC(=O)N[C@@H](CC(C)C)c2ccccc2N2CCCCC2)ccc1C(=O)O [REPAGLINIDE]
AC50 [4]: > 30 µM | AC50 [5]: > 30 µM | AC50 [6]: > 30 µM | AC50 [7]: 27 µM | AC50 [8]: > 30 µM

CCCN(CCC)CCc1cccc2c1CC(=O)N2 [ROPINIROLE]
AC50 [2]: > 10 µM

CC(/C=C1\SC(=S)N(CC(=O)O)C1=O)=C\c1ccccc1
AC50 [4]: > 30 µM | AC50 [5]: > 30 µM | AC50 [6]: > 30 µM | AC50 [7]: 4 µM | AC50 [8]: > 30 µM

CC1(C)S[C@@H]2[C@H](NC(=O)[C@H](N)c3ccc(O)cc3)C(=O)N2[C@H]1C(=O)O [AMOXICILLIN]
AC50 [3]: > 10 µM | AC50 [4]: > 30 µM | AC50 [5]: 18 µM | AC50 [6]: 4.1 µM | AC50 [7]: > 30 µM | AC50 [8]: > 30 µM

CNC[C@H](O)c1cccc(O)c1 [PHENYLEPHRINE]
AC50 [2]: > 10 µM

CCCCNc1ccc(C(=O)OCCN(C)C)cc1 [TETRACAINE]
AC50 [3]: > 10 µM
